Our source for the IC50 values is PubChem BioAssay AID1117319 (Southern Research Institute, 2015).

Inconclusive results are not listed. Some results are limits rather than exact numbers.

The target in the test is Virion infectivity factor (Human immunodeficiency virus type 1 group M subtype B (isolate BH10)) + Virion infectivity factor (Human immunodeficiency virus type 1 group M subtype B (isolate BRU/LAI)) + Virion infectivity factor (Human immunodeficiency virus type 1 group M subtype B (isolate PCV12)) + Virion infectivity factor (Human immunodeficiency virus type 1 group M subtype B (isolate HXB2)) + DNA dC->dU-editing enzyme APOBEC-3G (Homo sapiens) (UniProt P69720+P69721+P69722+P69723+Q9HC16). Briefly: HIV-1 Vif–A3G interaction blockers – biochemical, TR-FRET, GST-Vif 1-94, biotin-A3G peptide, dose response retest, primary screen (AID 1117319).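 Note: Vif residues 1-94 fused to GST binding biotinylated APOBEC3G peptide 110-148.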 Conditions: TR-FRET GST-Vif / biotin-A3G peptide binding. A general note: In TR-FRET formats the signal depends on donor and acceptor labels being close together.
For `O=[n+]1c2c(n([O-])c3cc(Cl)ccc31)CCCC2`, the concentration for half-maximal inhibition (IC50) was 9.81 µM.
With `COC(=O)c1ccc(C(=O)OC)c(NC(=O)Cc2cccs2)c1`, the IC50 was 4.22 µM.
The figure for `CCOc1ccc(N(CC(=O)NC(C)(C)C)S(=O)(=O)c2c(C)noc2C)cc1` is 5.1 µM; for `CCOC(=O)C1CCN(C(c2cccs2)c2sc3nc(C)nn3c2O)CC1` (stereo not given) it is 55.7 µM; for `CCc1ccc(NC(=O)N(CCN2CCOCC2)Cc2ccc3c(c2)CCCN3CC)cc1` it is 88.1 µM.
For `COC1=C(N)C(=O)c2nc(C)ccc2C1=O` the value was 18.3 µM.
For `O=C1C2CCCN2C(c2cccs2)N1c1ccccn1` (stereo not given), the IC50 was 82 µM.
Consider `COc1cc(C2Nc3ccccc3C(=O)N2c2ccccc2)ccc1O` (stereo not given), for which the IC50 was 39.4 µM.
With `COc1ccc(OC)c(S(=O)(=O)Nc2ccc(O)c3ccccc23)c1`, the IC50 was 8.62 µM.
For `O=C(NC1CCCC1)c1ccc2nc(-c3ccco3)c(-c3ccco3)nc2c1` the value was 0.3 µM.
The figure for `O=c1cc(-c2ccc(O)cc2)oc2cc(O)c(C3OC(CO)C(O)C(O)C3O)c(O)c12` (stereo not given) is 7.05 µM.
`Cc1ccc2c(c1)C1C=CCC1C(C(=O)O)N2` (stereo not given): the IC50 is 0.95 µM.
Turning to `COc1ccc(C2CC(=O)N3CN(c4ccc(C)c(Cl)c4)CSC3=C2C#N)cc1` (stereo not given), the IC50 was 81.2 µM.
The figure for `COc1ccc2[nH]c(=O)c(CN(Cc3ccco3)C(c3nnnn3Cc3ccccc3)C(C)C)cc2c1` (stereo not given) is 94.6 µM; for `CCc1cccc(NC(=O)CCS(=O)(=O)c2ccc(Br)cc2)c1` it is 14.7 µM; for `CN(C(=O)COC(=O)c1cc(-c2ccco2)nc2ccccc12)C1CCS(=O)(=O)C1` (stereo not given) it is 1.44 µM.
The figure for `O=C(N/N=C/C=C/c1ccco1)c1cccs1` is 7.15 µM; for `Cc1ccc(-c2c3c([nH]c(=S)c2C#N)CCCC3)o1` it is 13.9 µM.
The figure for `CCc1nc2oc3cc(OC)ccc3c(=O)c2c(=O)n1Cc1ccco1` is 39.4 µM.
Turning to `CCOC(=O)C1=C(Cc2ccc(Cl)cc2)C(=O)c2ccccc2C1=O`, the IC50 is 34.7 µM.
For `CC(=O)c1ccc(NC(=O)CSc2nnc(-c3ccco3)c(-c3ccco3)n2)cc1` the value was 3.91 µM; for `Oc1cccc(/C=N/NC(=S)NCCN2CCOCC2)c1O`, 12.4 µM.
For the compound `Cc1cc(C(C)c2ccccc2)c(O)c(CN2CCOCC2)c1C` (stereo not given), the IC50 was 28.8 µM.
The figure for `O=C(CSc1ccccc1)N1CCN(c2ccccc2)CC1` is 67.4 µM; for `O=S(=O)(O)c1cc(O)c(N=Nc2ccc(O)cc2O)c2ccccc12` it is 5.25 µM.
The figure for `O=C(O)Cc1ccc(N=Nc2c(O)c(C(=O)O)cc3ccccc23)cc1` is 10.5 µM; for `O=C(NN1C(=O)/C(=C/C=C/c2ccco2)SC1=S)c1ccccc1O` it is 1.93 µM; for `Cc1cc(C(F)(F)F)n2nc(C(=O)O)c(Cl)c2n1` it is 79.9 µM.
For `O=C1CCCC(O)=C1N=Nc1cccc(C(=O)O)c1` the value was 5.61 µM; for `CN1CCN(C2=C(Cl)C(=O)C(c3cnc(N4CCCCC4)s3)=C(Cl)C2=O)CC1`, 2.5 µM.
As for `O=C(NN1C(=O)/C(=C/C=C/c2ccco2)SC1=S)c1ccncc1`, the IC50 is 2.37 µM.
The figure for `Clc1ccc(OCc2nn3c(-c4ccco4)nnc3s2)c(Cl)c1` is 63.1 µM; for `COc1cc(CNCCc2ccc(F)cc2)ccc1OCc1ccc(Cl)nc1` it is 3.18 µM.
As to `COc1cccc(-n2c(/C=C/c3ccc(O)c(O)c3)nc3ccccc3c2=O)c1`, the IC50 is 10.7 µM.
The figure for `COc1ccc(/C=C(\NC(=O)c2ccc(OCC(C)C)cc2)C(=O)OCc2ccco2)cc1` is 32.7 µM; for `COc1ccc2c(c1)c1ccc3c(c1n2C)C(=O)C=CC3=O` it is 2.42 µM; for `CCOC(=O)c1cc([N+](=O)[O-])cc([N+](=O)[O-])c1Sc1ncnc2nc[nH]c12` it is 69.6 µM.
Turning to `COc1ccc(-c2cc(C(=O)N/N=C/c3ccc(OC)c(COCC(F)(F)C(F)F)c3)c3ccccc3n2)c(OC)c1`, the IC50 is 26.2 µM.
The figure for `CN1C(=O)/C(=C/c2cccn2-c2ccc3ccccc3c2)C(=O)NC1=S` is below 8.17 µM; for `O=C1C=C(Nc2cccc3cccnc23)c2ccccc2C1=O` it is 22.8 µM; for `O=C(Cc1ccccc1)NC(Nc1ccccc1)C(Cl)(Cl)Cl` (stereo not given) it is 27.9 µM.
For `O=C(O)CCCNc1cc(N2CCC3(CC2)OCCO3)c2noc3c2c1C(=O)c1ccccc1-3` the value was 0.97 µM.
Consider `CCC(c1ccc(O)c(O)c1)C(CC)c1ccc(O)c(O)c1` (stereo not given), for which the IC50 was 6.46 µM.
For `CC(C)C(C(=O)O)N1C(=O)/C(=C/C=C/c2ccco2)SC1=S` (stereo not given) the value was 0.36 µM; for `O=C1/C(=C/C=C/c2ccco2)SC(=S)N1NS(=O)(=O)c1ccccc1`, 2.9 µM; for `CN(C)C(CNC(=O)c1cccnc1Sc1ccccc1)c1ccco1` (stereo not given), 64 µM.
For the compound `CC1CC(=O)c2c(cc3c(-c4c(O)cc(O)c5c(O)c6c(cc45)OC(C)CC6=O)c(O)cc(O)c3c2O)O1` (stereo not given), the IC50 was 0.41 µM.
The figure for `O=C(Cn1cnc2c(nnn2Cc2ccc(F)cc2)c1=O)NCc1ccco1` is 94.6 µM; for `CCC(C(=O)OCC(=O)Nc1ccc(SC(F)F)cc1)c1ccccc1` (stereo not given) it is 83.2 µM; for `O=C1C(Cl)=C(Oc2ccccc2)C(=O)c2ccccc21` it is 23.6 µM.
For `Cn1cnnc1SCC(=O)Nc1ncc([N+](=O)[O-])s1` the value was 36.1 µM; for `CC(=O)c1cccc(NC(=O)c2cnn3ccccc23)c1`, 77.6 µM; for `Cc1cc(C)cc(NC(=O)CSc2nc3c(c(=O)n2C)SC(C)C3)c1` (stereo not given), 21.8 µM.
For `O=c1[nH]c2ccccc2n2c(-c3ccccc3)nnc12` the value was 15.5 µM; for `O=c1cc(O)n(-c2ccc(F)cc2)c(=S)[nH]1`, 51.5 µM; for `O=C(COc1ccc(Cl)cc1)N1CCN(S(=O)(=O)c2ccc(Cl)cc2)CC1`, 50.7 µM.
For `O=c1c(O)cccc2cc(O)c(O)c(O)c12`, the IC50 is 1.03 µM.
Take `O=c1cc(-c2ccccc2Cl)c2c([nH]1)CCC2`: the IC50 is 4.31 µM.
The figure for `CCOC(=O)C(C(=O)OCC)c1cc(Br)c2noc3c2c1C(=O)c1ccccc1-3` is 2.45 µM; for `COc1ccc(NC(=O)/C(C#N)=C/c2ccc(Br)o2)cc1` it is 14.7 µM.
In the case of `O=C(NCCO)c1ccc2nc(-c3ccco3)c(-c3ccco3)nc2c1`, the IC50 is 0.88 µM.
On to `CN=c1scc(-c2ccco2)n1/N=C/c1ccc(O)c(O)c1`, for which the IC50 is 9.26 µM.
Turning to `COCCN=c1scc(-c2cccs2)n1/N=C/c1ccc(O)c(O)c1O`, the IC50 was 2.37 µM.
Turning to `C=CCn1c(COc2ccc(F)cc2)nnc1SCC(=O)NC(=O)NCc1ccco1`, the IC50 is 40.7 µM.
As to `O=[n+]1c2c(n([O-])c3cc(F)c(F)cc31)CCCC2`, the IC50 is 5.33 µM.
For `Cc1ccc(Cl)cc1N1CCN(C(=O)COc2ccc3c(c2)CCC3)CC1` the value was 45.4 µM.
Turning to `COc1ccc(/C=N/NC(=O)CNc2n[nH]c(=O)[nH]c2=O)cc1OC`, the IC50 was 42.6 µM.
For `C=CCSc1nnc(NC(=O)CSc2nnc(C)s2)s1` the value was 90.6 µM.
As for `CCC1=NN2C(=N)/C(=C\c3ccc(SCc4ccco4)o3)C(=O)N=C2S1`, the IC50 is 10.4 µM.
The figure for `COc1ccc(O)c(N)c1` is 0.93 µM; for `Cc1cc(O)c(-c2cc(O)c(C)cc2O)cc1O` it is 8.44 µM.
For `CC1CCN(Cc2c(O)ccc3c2O/C(=C\c2ccco2)C3=O)CC1` the value was 3 µM; for `O=C(/C(=N/N=C/c1ccc(O)c(O)c1O)c1ccccc1)c1ccccc1`, 3.15 µM.
For `COc1cc(C2C(C#N)=C(N)N(c3cccnc3)C3=C2C(=O)CCC3)ccc1O` (stereo not given), the 50% inhibitory concentration (IC50) was 13.6 µM.
For `CCC(C)Cn1c(O)cc2nn(-c3nc4ccccc4s3)c(=O)c-2c1C` (stereo not given) the value was 2.65 µM.
The figure for `CSc1nc(NCCOCCO)c2sc3nc(-c4ccco4)c4c(c3c2n1)CCC4` is 1.41 µM; for `CC(=O)C1=C(C)NC(C)=C(C(C)=O)C1c1cccs1` it is 23.5 µM.
For `Cc1cc(C)nc(N/N=C/C2=C(N3CCOCC3)C(=C\c3ccc(Cl)cc3)/CC2)n1` the value was 13.3 µM; for `O=C(O)c1ccc(-n2nc(C(F)(F)F)c3c2-c2ccoc2CC3)cc1`, 58.6 µM.
In the case of `COC(=O)CCC(=O)OC1(C)C(=O)C2=CN(CCCOC(C)C)C(c3ccc(OC)cc3)=CC2=C(Br)C1=O` (stereo not given), the IC50 was 11.5 µM.
The figure for `O=C(NC(=S)Nc1cccc(S(=O)(=O)NC2=NCCC2)c1)c1cc(-c2ccco2)nc2ccccc12` is 8.99 µM; for `Cc1ccnc(NS(=O)(=O)c2ccc(NC(=O)Cc3cccs3)cc2)n1` it is 8.35 µM; for `C=CCSC1=N/C(=C\C=C\c2ccco2)C(=O)S1` it is 1.05 µM.
On to `CC(C)CNC1=CC(=O)CC(c2ccco2)C1` (stereo not given), for which the IC50 was 3.75 µM.
The figure for `CC1=CC(C)(C)Nc2ccc(OC(=O)c3cccnc3)cc21` is 30.4 µM; for `CCOC(=O)C1CCCC12Nc1cccc3cccc(c13)N2` (stereo not given) it is 3.74 µM; for `CCN(CC)c1ccc(N=Cc2ccc(N(CC)CC)cc2O)cc1` it is 50.7 µM.
On to `O=[N+]([O-])c1cc(CN2CCN(c3cccc(C(F)(F)F)c3)CC2)c2cccnc2c1O`, for which the half-inhibitory concentration (IC50) was 8.68 µM.
Turning to `CC(=O)NCc1c(Cl)cccc1-n1cccc1`, the IC50 is 72.7 µM.
With `O=C(Nc1cc(Cl)cc(Cl)c1)c1coc(=O)c(Br)c1`, the IC50 is 19.1 µM.
For `CC1=C(C#N)C(=O)N(C2CCS(=O)(=O)C2)C(=O)/C1=C\c1ccco1` (stereo not given) the value was 0.62 µM; for `O=C(COC(=O)c1c2c(nc3ccccc13)/C(=C\c1ccco1)CC2)NC1CCCC1`, 3.67 µM.
The figure for `O/C=c1\ccc2cccc3nc(C(F)(F)F)nc1c23` is 2.79 µM; for `COC(=O)C1C(O)C(C)C(O)C(C)(O)/C=C\C=C(/C)C(=O)Nc2c(C)c(OC(C)=O)c3c(c2O)C(=O)C(C)=C2OCOC(=C23)/C(C)=C/C(C)(O)C(O)C(C)C1O` (stereo not given) it is 13.6 µM.
For `COc1ccccc1C1CC(=O)Nc2c1c(=O)n(C)c(=O)n2C` (stereo not given) the value was 70.4 µM.

Usually IC50 stands for the concentration needed to halve the response being measured.
